Consider 2 compounds from BindingDB's records for PubMed 34355178 (n/a, 2021).

The assay addresses T1, Toll-like receptor 7 (Homo sapiens, UniProt Q9NYK1).
T1 sequence (Q9NYK1 whole entry): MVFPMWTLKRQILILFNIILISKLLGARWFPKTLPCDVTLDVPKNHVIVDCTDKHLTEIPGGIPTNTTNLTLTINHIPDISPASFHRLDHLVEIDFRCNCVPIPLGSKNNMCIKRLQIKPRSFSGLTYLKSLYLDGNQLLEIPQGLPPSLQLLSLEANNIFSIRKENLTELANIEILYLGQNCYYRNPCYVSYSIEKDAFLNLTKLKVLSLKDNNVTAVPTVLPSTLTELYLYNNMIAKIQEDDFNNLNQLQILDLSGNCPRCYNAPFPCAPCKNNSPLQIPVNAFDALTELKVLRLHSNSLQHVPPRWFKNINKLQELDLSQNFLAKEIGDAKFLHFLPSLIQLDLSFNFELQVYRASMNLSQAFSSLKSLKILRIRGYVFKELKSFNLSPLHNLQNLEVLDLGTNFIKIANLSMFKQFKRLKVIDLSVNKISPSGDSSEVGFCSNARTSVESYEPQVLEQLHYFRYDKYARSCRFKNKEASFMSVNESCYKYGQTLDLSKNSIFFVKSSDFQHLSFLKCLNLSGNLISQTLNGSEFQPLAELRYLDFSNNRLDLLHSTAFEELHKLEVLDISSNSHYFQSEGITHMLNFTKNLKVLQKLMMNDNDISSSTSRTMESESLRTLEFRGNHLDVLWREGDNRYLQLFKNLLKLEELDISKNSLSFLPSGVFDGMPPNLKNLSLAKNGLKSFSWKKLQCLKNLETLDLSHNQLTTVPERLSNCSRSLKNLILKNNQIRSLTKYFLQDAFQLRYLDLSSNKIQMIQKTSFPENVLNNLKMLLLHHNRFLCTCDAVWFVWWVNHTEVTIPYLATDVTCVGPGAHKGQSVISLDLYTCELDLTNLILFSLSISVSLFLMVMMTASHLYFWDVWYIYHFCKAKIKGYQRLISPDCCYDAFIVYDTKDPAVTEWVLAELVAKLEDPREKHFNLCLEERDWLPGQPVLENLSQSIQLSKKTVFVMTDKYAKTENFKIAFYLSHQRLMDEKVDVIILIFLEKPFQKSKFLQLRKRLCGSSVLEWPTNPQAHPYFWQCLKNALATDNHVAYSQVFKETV
In words: Agonist activity at human TLR7 in HEK-Blue hTLR7 cells assessed as activation of NFkappaB by SEAP reporter gene based spectrophotometry assay. Background: Reporter assays use an easily measured gene product as a stand-in for the process of interest.

A word on the EC50: it is the concentration that produces a half-maximal response.

Take `CC[C@H](C)c1nc2c(N)nc3ccccc3c2s1`: the EC50 was determined as 8.11 µM.

With `CCCc1nc2c(N)nc3ccc(N)cc3c2s1`, the EC50 came to 8.19 µM.
